Experimental data as given in US7396837B2, “Antitumoral analogs of lamellarins” (Pharma Mar, S.A.U., priority 2002, dated 2008).
Like-named read-outs stand apart in the source and are kept apart here.

Legend:
Type in all cases: cell-based
[1] = test system: HT-29; assay: SRB colorimetric cell growth inhibition assay, HT-29; conditions: Homo sapiens; for GI50: GI=growth inhibition, read-out: GI50 HT-29; for IC (TGI): total growth inhibition (cytostatic effect), read-out: TGI HT-29; for CC50: cell killing (cytotoxic effect)
Method in brief: (§1)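 Continuous-exposure format, human tumour lines. SRB colour reaction quantifies growth/viability. Triplicate wells → mean ± SD → GI, TGI, LC.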

[2] = test system: LoVo; assay: SRB colorimetric cell growth inhibition assay, LoVo; conditions: Homo sapiens, LoVo; for CC50: cell killing (cytotoxic effect); for GI50: GI=growth inhibition, read-out: GI50 LOVO; for IC (TGI): total growth inhibition (cytostatic effect), read-out: TGI LOVO
Method in brief: as §1

[3] = test system: DU-145; assay: SRB colorimetric cell growth inhibition assay, DU-145; conditions: Homo sapiens; for GI50: GI=growth inhibition, read-out: GI50 DU-145; for IC (TGI): total growth inhibition (cytostatic effect), read-out: TGI DU-145; for CC50: cell killing (cytotoxic effect)
Method in brief: as §1

[4] = test system: LoVo-Dox; assay: SRB colorimetric cell growth inhibition assay, LoVo-Dox (MDR); conditions: Homo sapiens; for GI50: GI=growth inhibition, read-out: GI50 LOVO-DOX; for IC (TGI): total growth inhibition (cytostatic effect), read-out: TGI LOVO-DOX; for CC50: cell killing (cytotoxic effect)
Method in brief: as §1

[5] = test system: PANC-1; assay: SRB colorimetric cell growth inhibition assay, PANC-1; conditions: Homo sapiens; for GI50: GI=growth inhibition, read-out: GI50 PANC-1; for IC (TGI): total growth inhibition (cytostatic effect), read-out: TGI PANC-1; for CC50: cell killing (cytotoxic effect)
Method in brief: as §1

[6] = test system: SK-MEL-28; assay: SRB colorimetric cell growth inhibition assay, SK-MEL-28; conditions: Homo sapiens; for GI50: GI=growth inhibition, read-out: GI50 MEL-28; for IC (TGI): total growth inhibition (cytostatic effect), read-out: TGI MEL-28; for CC50: cell killing (cytotoxic effect)
Method in brief: as §1

[7] = test system: K-562; assay: SRB colorimetric cell growth inhibition assay, K-562; conditions: Homo sapiens; for GI50: GI=growth inhibition, read-out: GI50 K-562; for IC (TGI): total growth inhibition (cytostatic effect), read-out: TGI K-562; for CC50: cell killing (cytotoxic effect)
Method in brief: as §1

[8] = test system: LNCaP; assay: SRB colorimetric cell growth inhibition assay, LNCaP; conditions: Homo sapiens, LNCaP; for GI50: GI=growth inhibition, read-out: GI50 LN-caP; for IC (TGI): total growth inhibition (cytostatic effect), read-out: TGI LN-caP; for CC50: cell killing (cytotoxic effect)
Method in brief: as §1

[9] = test system: SK-BR-3; assay: SRB colorimetric cell growth inhibition assay, SK-BR-3; conditions: Homo sapiens; for GI50: GI=growth inhibition, read-out: GI50 SK-BR-3; for IC (TGI): total growth inhibition (cytostatic effect), read-out: TGI SK-BR-3; for CC50: cell killing (cytotoxic effect)
Method in brief: as §1

[10] = test system: HeLa-APL; assay: SRB colorimetric cell growth inhibition assay, HeLa-APL (aplidine resistant); conditions: Homo sapiens; for GI50: read-out: GI50 HELA-APL; for CC50: cell killing (cytotoxic effect); for IC (TGI): read-out: TGI HELA-APL
Method in brief: as §1

[11] = test system: IGROV; assay: SRB colorimetric cell growth inhibition assay, IGROV; conditions: Homo sapiens, IGROV; for CC50: cell killing (cytotoxic effect); for GI50: GI=growth inhibition, read-out: GI50 IGROV; for IC (TGI): total growth inhibition (cytostatic effect), read-out: TGI IGROV
Method in brief: as §1

[12] = test system: IGROV-ET; assay: SRB colorimetric cell growth inhibition assay, IGROV-ET (ET-743 resistant); conditions: Homo sapiens; for GI50: GI=growth inhibition, read-out: GI50 IGROV-ET; for IC (TGI): total growth inhibition (cytostatic effect), read-out: TGI IGROV-ET; for CC50: cell killing (cytotoxic effect)
Method in brief: as §1

[13] = test system: HeLa; assay: SRB colorimetric cell growth inhibition assay, HeLa; conditions: Homo sapiens, HeLa; for CC50: cell killing (cytotoxic effect); for IC (TGI): read-out: TGI HELA; for GI50: GI=growth inhibition, read-out: GI50 HELA
Method in brief: as §1

[14] = test system: A-549; assay: SRB colorimetric cell growth inhibition assay, A-549; conditions: Homo sapiens; for GI50: GI=growth inhibition, read-out: GI50 A-549; for IC (TGI): total growth inhibition (cytostatic effect), read-out: TGI A-549; for CC50: cell killing (cytotoxic effect)
Method in brief: as §1

COc1cc(-c2c3c4cc(OC)c(OC(=O)[C@@H](N)CO)cc4oc(=O)c3n3ccc4c(OC(=O)[C@@H](N)CO)c(OC)c(OC)cc4c23)ccc1OC(=O)[C@@H](N)CO [Compound 9]
GI50 ([1]; HT-29, HT-29): 1.61 µM | IC (TGI) ([1]; HT-29, HT-29): 3.28 µM | CC50 ([1]; HT-29, read-out: LC50 HT-29, HT-29): 6.66 µM | CC50 ([2]; read-out: LC50 LOVO, LOVO): 2.3 µM | GI50 [2]: 0.243 µM | IC (TGI) [2]: 0.584 µM | GI50 ([3]; DU-145, DU-145): 0.0543 µM | IC (TGI) ([3]; DU-145, DU-145): 0.169 µM | CC50 ([3]; DU-145, read-out: LC50 DU-145, DU-145): 0.615 µM | GI50 ([4]; LOVO-DOX): 0.388 µM | IC (TGI) ([4]; LOVO-DOX): 1.14 µM | CC50 ([4]; read-out: LC50 LOVO-DOX, LOVO-DOX): 3.63 µM | GI50 ([5]; PANC-1, PANC-1): 0.2 µM | IC (TGI) ([5]; PANC-1, PANC-1): 1.56 µM | CC50 ([5]; PANC-1, read-out: LC50 PANC-1, PANC-1): 4.91 µM | GI50 ([6]; SK-MEL-28, MEL-28): 0.134 µM | IC (TGI) ([6]; SK-MEL-28, MEL-28): 0.516 µM | CC50 ([6]; SK-MEL-28, read-out: LC50 MEL-28, MEL-28): 2.11 µM | GI50 ([7]; K562, K-562): 0.0473 µM | IC (TGI) ([7]; K562, K-562): 0.311 µM | CC50 ([7]; K562, read-out: LC50 K-562, K-562): 4.18 µM | GI50 ([8]; LN-caP): 0.174 µM | IC (TGI) ([8]; LN-caP): 0.422 µM | CC50 ([8]; read-out: LC50 LN-caP, LN-caP): 1.38 µM | GI50 ([9]; SK-BR-3, SK-BR-3): 0.174 µM | IC (TGI) ([9]; SK-BR-3, SK-BR-3): 0.374 µM | CC50 ([9]; SK-BR-3, read-out: LC50 SK-BR-3, SK-BR-3): 0.806 µM | GI50 [10]: 0.282 µM | CC50 ([10]; read-out: LC50 HELA-APL, HELA-APL): 3.83 µM | IC (TGI) [10]: 1.23 µM | CC50 ([11]; read-out: LC50 IGROV, IGROV): 3 µM | GI50 [11]: 0.182 µM | IC (TGI) [11]: 0.909 µM | GI50 ([12]; IGROV-ET): 0.132 µM | IC (TGI) ([12]; IGROV-ET): 0.98 µM | CC50 ([12]; read-out: LC50 IGROV-ET, IGROV-ET): 0.493 µM | CC50 ([13]; read-out: LC50 HELA, HELA): 4.06 µM | IC (TGI) [13]: 0.459 µM | GI50 [13]: 0.107 µM | GI50 ([14]; A549, A-549): 0.323 µM | IC (TGI) ([14]; A549, A-549): 1.15 µM | CC50 ([14]; A549, read-out: LC50 A-549, A-549): 6.76 µM

COc1cc2ccn3c(c(-c4ccc(OC(=O)[C@@H](NC(=O)OC(C)(C)C)C(C)C)c(OC)c4)c4c5cc(OC)c(OC(=O)[C@@H](NC(=O)OC(C)(C)C)C(C)C)cc5oc(=O)c43)c2cc1OC [Compound 15]
GI50 ([1]; HT-29, HT-29): 0.0473 µM | CC50 ([1]; HT-29, HT-29, read-out: LC50 HT-29): 9.17 µM | IC (TGI) ([1]; HT-29, HT-29): 0.111 µM | GI50 [2]: 1.68 µM | CC50 ([2]; read-out: LC50 LOVO): 11 µM | IC (TGI) [2]: 4.96 µM | GI50 ([3]; DU-145, DU-145): 0.0685 µM | CC50 ([3]; DU-145, DU-145, read-out: LC50 DU-145): 11 µM | IC (TGI) ([3]; DU-145, DU-145): 3.08 µM | GI50 ([4]; LOVO-DOX): 11 µM | CC50 ([4]; LOVO-DOX, read-out: LC50 LOVO-DOX): 11 µM | IC (TGI) ([4]; LOVO-DOX): 11 µM | GI50 ([5]; PANC-1, PANC-1): 1.54 µM | CC50 ([5]; PANC-1, PANC-1, read-out: LC50 PANC-1): 11 µM | IC (TGI) ([5]; PANC-1, PANC-1): 5.26 µM | GI50 ([6]; SK-MEL-28, MEL-28): 0.0482 µM | CC50 ([6]; SK-MEL-28, MEL-28, read-out: LC50 MEL-28): 7.24 µM | IC (TGI) ([6]; SK-MEL-28, MEL-28): 1.64 µM | GI50 ([7]; K562, K-562): 1.6 µM | CC50 ([7]; K562, K-562, read-out: LC50 K-562): 9.57 µM | IC (TGI) ([7]; K562, K-562): 3.91 µM | GI50 ([8]; LN-caP): 0.056 µM | CC50 ([8]; LN-caP, read-out: LC50 LN-caP): 3.93 µM | IC (TGI) ([8]; LN-caP): 0.609 µM | GI50 ([9]; SK-BR-3, SK-BR-3): 0.0561 µM | CC50 ([9]; SK-BR-3, SK-BR-3, read-out: LC50 SK-BR-3): 5.84 µM | IC (TGI) ([9]; SK-BR-3, SK-BR-3): 0.635 µM | GI50 ([10]; HELA-APL, GI=growth inhibition): 2.43 µM | CC50 ([10]; HELA-APL, read-out: LC50 HELA-APL): 11 µM | IC (TGI) ([10]; HELA-APL, total growth inhibition (cytostatic effect)): 5.53 µM | GI50 [11]: 0.0862 µM | CC50 ([11]; read-out: LC50 IGROV): 9.76 µM | IC (TGI) [11]: 2.03 µM | GI50 ([12]; IGROV-ET): 6.87 µM | CC50 ([12]; IGROV-ET, read-out: LC50 IGROV-ET): 11 µM | IC (TGI) ([12]; IGROV-ET): 11 µM | GI50 [13]: 0.0579 µM | CC50 ([13]; read-out: LC50 HELA): 7.81 µM | IC (TGI) ([13]; total growth inhibition (cytostatic effect)): 1.41 µM | GI50 ([14]; A549, A-549): 0.0541 µM | CC50 ([14]; A549, A-549, read-out: LC50 A-549): 11 µM | IC (TGI) ([14]; A549, A-549): 1.46 µM
